For data set [1], the system named is noncancer HDMEC primary cells (human dermal microvascular endothelial cells). The experiment in a line: Cell viability assay (MTT). The format is cell-based. The conditions noted are these: Table S2; noncancer primary cells; MTT, 24 h; mean ± sd; N = 2 independent measurements with six technical replicates each (Figs S6-S8). The method, then:
(§1) 10% fetal bovine serum and 1% penicillin-streptomycin (Thermo Fisher Scientific, Waltham, MA, USA). The cultures were kept at 37°C in a 5% CO2 atmosphere incubator (Thermo Fisher Scientific, Waltham, MA, USA) and split every two to three days to new culture flasks. Cells no older than 20 passages were used for experiments.
(§2) For splitting, the cell culture media was aspirated, the cells were washed with 0.01 M phosphate buffered saline (PBS, Gibco, Thermo Fisher Scientific, Waltham, MA, USA) and trypsin-EDTA (trypsin - ethylene diamine tetraacetic acid, Fisher scientific, UK) was added to the cell layer to detach them from the flask surface. After incubation for 2 min at 37°C, cells were resuspended with an equal volume of DMEM media and centrifuged at 310 g for 5 min at 4°C. After removal of the supernatant the cells were resuspended in DMEM cell media and split into new cell culture flasks at a 1/3 to 1/5 ratio.
(§3) Determination of the anticancer peptides half effective concentration (EC50) was performed by a 3-(4,5-dimethylthiazol-2-yl)-2,5-diphenyltetrazolium bromide (MTT) assay, as described elsewhere21. Briefly, […] were seeded in each well of a 96-well plate and left to adhere and […]
(§4) sulfoxide (DMSO, Fisher Scientific, UK) at an intermediate concentration of 1 mM. The peptides were then diluted in a 2-fold dilution series starting at 100 μM with DMEM culture media. Cells were incubated with the peptide solutions for 24 h. After this time, the cell media was removed and the cells were incubated for 1 h with a 0.5 mg mL−1 MTT solution to allow enough time for formazan crystal formation (Sigma Aldrich, Steinheim, Germany). The supernatant was removed and 100 μL of DMSO were added into each well to resuspend the formazan crystals.
(§5) After manually shaking the plates to completely dissolve the crystals, the absorbance was measured at 540 nm in a Tecan Infinity M1000 spectrophotometer. The cell viability was determined based on the quantification of the color intensity in each culture well, considering the absorbance obtained by the control media without peptides as a 100% survival. The resultant sigmoidal curves were analyzed with the drc22 R package using a log-logistic model

The test system of data set [2] is A549 lung adenocarcinoma cell line. The experiment in a line: Cell viability assay (MTT). The format is cell-based, human. Conditions: Table S2; MTT, 24 h; mean ± sd; N = 2 independent measurements with six technical replicates each (Figs S6-S8); read-out: A549 EC50 /µM. On the procedure:
as §1, §2, §3, §4, §5

Data set [3] has as its system MCF7 breast adenocarcinoma cell line. Nature of the data set: Cell viability assay (MTT). Conditions: Table S2, 24 h, mean ± sd, N = 2 independent measurements with six technical replicates each (Figs S6-S8). The format is cell-based, human. On the procedure:
as §1, §2, §3, §4, §5

In a further data set the test system is human erythrocytes. The experiment in a line: Hemolysis assay. The format is cell-based. The conditions noted are these: red cells of human, 1 h. On the procedure:
Human erythrocytes were freshly ordered at the Blutspende Zürich. Erythrocytes were washed 3 times with a […] phosphate buffered saline (PBS, Gibco, Thermo Fisher Scientific, Waltham, MA, USA) solution centrifuging at 800 g for 10 min or until the supernatant appeared clear to remove the blood plasma. A 5% v/v erythrocytes : PBS solution was prepared for direct use. For HC50 determination, peptides were dissolved in PBS at an intermediate concentration of 1 mM. A dilution series of the peptide from 200 to 6.25 μM was plated in a round-bottomed 96-well plate in triplicates, with a volume of 50 μL per well. PBS buffer and a solution of 0.1% Triton-X-100 (Fisher Chemical, Loughborough, UK) in PBS were employed as negative and positive controls, respectively. 50 μL of the 5% erythrocyte solution were added in each well and the plates were incubated at 37°C for 1 h. After this time, 100 μL PBS were added to each well and plates were centrifuged at 800 g for 10 min. 100 μL of the supernatant were transferred to a flat-bottomed 96-well plate and the absorbance was measured at 540 nm in a Tecan Infinity M1000 spectrophotometer plate reader. The hemolysis percentage was calculated, considering the absorbance values of the Triton and PBS wells as 100% and 0% hemolysis, respectively.
The resultant sigmoidal curves were analyzed with the drc22 R package using a log-logistic model with 3 fixed parameters to obtain the HC50 values. […]
NCI-60 screening procedure […]
Each peptide was tested in a 5-concentration assay, starting at 10^-4 M and diluting 10-fold to the lowest 10^-8 M concentration. The peptides were incubated for 48 h and the cell concentration was assayed by using the sulforhodamine B assay25 and optical density measurements. The growth inhibition (GI50) value24, measures the growth inhibitory power of the drug agent. The GI50 value is the concentration of the test drug for which the condition in Eq. S1 is met, where T is the optical density of the test well after a 48-h exposure to the peptide, T0 the optical density before applying the peptide drug and C the control optical density of a well where no peptide was applied.

The record followed here is paper PMC6677754, “In silico design and optimization of selective membranolytic anticancer peptides” (Scientific Reports, 2019).

Each structure is given as a SMILES string. Peptide text beside a SMILES is read from it.

With `CC[C@H](C)[C@H](NC(=O)[C@@H]1CCCN1C(=O)[C@H](Cc1c[nH]cn1)NC(=O)[C@H](Cc1ccccc1)NC(=O)[C@H](CCCCN)NC(=O)[C@H](CCCCN)NC(=O)[C@H](Cc1ccccc1)NC(=O)[C@@H](NC(=O)[C@@H](N)CCCNC(=N)N)C(C)C)C(=O)N[C@@H](Cc1ccc(O)cc1)C(=O)N[C@@H](Cc1c[nH]cn1)C(=O)N[C@@H](CCCNC(=N)N)C(=O)N[C@H](C(=O)N[C@@H](Cc1c[nH]c2ccccc12)C(=O)N[C@@H](CCCNC(=N)N)C(=O)N[C@@H](CC(C)C)C(=O)N[C@@H](Cc1c[nH]c2ccccc12)C(=O)NCC(=O)N[C@@H](Cc1c[nH]cn1)C(=O)N[C@@H](CC(C)C)C(N)=O)C(C)C` [Off1] (H-RVFKKFHPIYHRVWRLWGHL-NH2), the EC50 in data set [1] was 56 ± 7 µM; in data set [2], 49 ± 2 µM; in data set [3] it was 27.4 ± 0.5 µM. Besides, in the data set on human erythrocytes, the “Eryhtr. HC50 /µM” value was more than 200 µM.
For `CC(C)C[C@H](NC(=O)[C@H](CCCCN)NC(=O)CNC(=O)[C@H](Cc1ccccc1)NC(=O)[C@H](CC(C)C)NC(=O)[C@H](CCC(=O)O)NC(=O)[C@H](Cc1c[nH]c2ccccc12)NC(=O)[C@@H]1CCCN1C(=O)[C@H](CCCNC(=N)N)NC(=O)[C@H](CCCNC(=N)N)NC(=O)[C@H](Cc1ccc(O)cc1)NC(=O)[C@H](Cc1ccccc1)NC(=O)[C@@H]1CCCN1C(=O)[C@H](CCCNC(=N)N)NC(=O)[C@H](Cc1ccccc1)NC(=O)[C@H](CCCCN)NC(=O)[C@H](CCCCN)NC(=O)[C@H](Cc1ccccc1)NC(=O)[C@@H](NC(=O)[C@@H](N)CCC(N)=O)C(C)C)C(N)=O` [Off2.1] (H-QVFKKFRPFYRRPWELFGKL-NH2), in that order: 173 ± 1 µM, more than 100 µM, 91 ± 2 µM and more than 200 µM.
Regarding `CC[C@H](C)[C@H](NC(=O)[C@H](CCCCN)NC(=O)[C@H](CCCCN)NC(=O)[C@@H](NC(=O)[C@@H](NC(=O)[C@@H](N)CCC(N)=O)C(C)C)C(C)C)C(=O)N[C@@H](CCCNC(=N)N)C(=O)N[C@H](C(=O)N[C@@H](Cc1c[nH]c2ccccc12)C(=O)N[C@@H](Cc1ccc(O)cc1)C(=O)N[C@@H](Cc1c[nH]cn1)C(=O)N[C@@H](CCCCN)C(=O)N[C@@H](C)C(=O)N[C@@H](Cc1c[nH]c2ccccc12)C(=O)N[C@@H](Cc1c[nH]cn1)C(=O)N[C@H](C(=O)N[C@@H](CC(C)C)C(=O)NCC(=O)N[C@@H](CCCCN)C(=O)N[C@H](C(N)=O)C(C)C)C(C)C)[C@@H](C)O` [Off2.2.1] (H-QVVKKIRTWYHKAWHVLGKV-NH2), the EC50 was 96 ± 7 µM in data set [1], more than 100 µM in data set [2] and 76 ± 15 µM in data set [3]. For the same molecule, the “Eryhtr. HC50 /µM” value in the data set with human erythrocytes is recorded as more than 200 µM.
For `CC[C@H](C)[C@H](NC(=O)[C@H](CC(C)C)NC(=O)[C@@H](N)CCC(N)=O)C(=O)N[C@@H](Cc1c[nH]cn1)C(=O)N[C@@H](CCCCN)C(=O)N[C@H](C(=O)N[C@@H](CCCNC(=N)N)C(=O)N[C@H](C(=O)N[C@@H](Cc1c[nH]c2ccccc12)C(=O)N[C@@H](Cc1ccc(O)cc1)C(=O)N[C@@H](CCCNC(=N)N)C(=O)N[C@@H](CCCCN)C(=O)N[C@@H](C)C(=O)N[C@@H](Cc1c[nH]c2ccccc12)C(=O)N[C@@H](Cc1c[nH]cn1)C(=O)N[C@H](C(=O)N[C@@H](CC(C)C)C(=O)NCC(=O)N[C@@H](CCCCN)C(=O)N[C@H](C(N)=O)C(C)C)C(C)C)[C@@H](C)O)[C@@H](C)CC` [Off2.2.2] (H-QLIHKIRTWYRKAWHVLGKV-NH2), the EC50 turned out to be 28 ± 3 µM in data set [1], 20 ± 2 µM in data set [2] and 13 ± 1 µM in data set [3]. The “Eryhtr. HC50 /µM” value with human erythrocytes is more than 200 µM.
Take `CC[C@H](C)[C@H](NC(=O)[C@H](Cc1c[nH]cn1)NC(=O)[C@H](Cc1c[nH]c2ccccc12)NC(=O)[C@H](C)NC(=O)[C@H](CCCCN)NC(=O)[C@H](CCCNC(=N)N)NC(=O)[C@H](CC(C)C)NC(=O)[C@H](Cc1c[nH]c2ccccc12)NC(=O)[C@@H](NC(=O)[C@H](CCCNC(=N)N)NC(=O)[C@H](Cc1c[nH]c2ccccc12)NC(=O)[C@H](CCCCN)NC(=O)[C@H](CCCCN)NC(=O)[C@H](CC(C)C)NC(=O)[C@H](CC(C)C)NC(=O)[C@@H](N)Cc1c[nH]cn1)[C@@H](C)O)C(=O)N[C@H](C(=O)NCC(=O)N[C@@H](CCCCN)C(=O)N[C@H](C(N)=O)C(C)C)C(C)C` [Off2.2.3] (H-HLLKKWRTWLRKAWHIVGKV-NH2): the results for the EC50 in data set [1], in data set [2] and in data set [3] were 6.1 ± 0.5 µM, 9 ± 1 µM and 7 ± 1 µM, respectively. The “Eryhtr. HC50 /µM” value with human erythrocytes came to 59 ± 6 µM.
For `CC[C@H](C)[C@H](NC(=O)[C@@H](NC(=O)[C@H](Cc1c[nH]cn1)NC(=O)[C@H](Cc1ccccc1)NC(=O)[C@H](C)NC(=O)[C@H](CCCCN)NC(=O)[C@H](CCCNC(=N)N)NC(=O)[C@H](Cc1ccc(O)cc1)NC(=O)[C@H](Cc1c[nH]c2ccccc12)NC(=O)[C@@H](NC(=O)[C@H](CCCNC(=N)N)NC(=O)[C@@H](NC(=O)[C@H](CCCCN)NC(=O)[C@H](CCCCN)NC(=O)[C@H](CC(C)C)NC(=O)[C@@H](NC(=O)[C@@H](N)CCC(N)=O)C(C)C)C(C)C)[C@@H](C)O)C(C)C)C(=O)NCC(=O)N[C@@H](CCCCN)C(=O)N[C@H](C(N)=O)C(C)C` [Off2.2.4] (H-QVLKKVRTWYRKAFHVIGKV-NH2), in that order: more than 100 µM, more than 100 µM, 68 ± 5 µM and more than 200 µM.
For `CC(C)C[C@H](NC(=O)[C@H](Cc1c[nH]cn1)NC(=O)[C@H](Cc1c[nH]c2ccccc12)NC(=O)[C@H](C)NC(=O)[C@H](CCCCN)NC(=O)[C@H](CCCNC(=N)N)NC(=O)[C@H](Cc1ccc(O)cc1)NC(=O)[C@H](Cc1c[nH]c2ccccc12)NC(=O)[C@@H](NC(=O)[C@H](CCCNC(=N)N)NC(=O)[C@@H](NC(=O)[C@H](CCCCN)NC(=O)[C@H](CCCCN)NC(=O)[C@H](CC(C)C)NC(=O)[C@H](CC(C)C)NC(=O)[C@@H](N)CCC(N)=O)C(C)C)[C@@H](C)O)C(=O)N[C@@H](Cc1ccc(O)cc1)C(=O)NCC(=O)N[C@@H](CCCCN)C(=O)N[C@H](C(N)=O)C(C)C` [Off2.2.5] (H-QLLKKVRTWYRKAWHLYGKV-NH2), the EC50 in data set [1] was 27.2 ± 0.5 µM; in data set [2] it was 29.3 ± 0.9 µM; in data set [3] it was 16 ± 2 µM. In the data set on human erythrocytes, the “Eryhtr. HC50 /µM” value is more than 200 µM.
For `CC[C@H](C)[C@H](NC(=O)[C@H](CC(C)C)NC(=O)[C@@H](N)CCC(N)=O)C(=O)N[C@@H](CCCCN)C(=O)N[C@@H](CCCCN)C(=O)N[C@@H](CC(C)C)C(=O)N[C@@H](CCCNC(=N)N)C(=O)N[C@H](C(=O)N[C@@H](Cc1c[nH]c2ccccc12)C(=O)N[C@@H](Cc1ccc(O)cc1)C(=O)N[C@@H](CCCNC(=N)N)C(=O)N[C@@H](CCCCN)C(=O)N[C@@H](C)C(=O)N[C@@H](Cc1c[nH]c2ccccc12)C(=O)N[C@@H](Cc1c[nH]cn1)C(=O)N[C@H](C(=O)N[C@@H](CC(C)C)C(=O)NCC(=O)N[C@@H](CCCCN)C(=O)N[C@@H](CC(C)C)C(N)=O)C(C)C)[C@@H](C)O` [Off2.2.6] (H-QLIKKLRTWYRKAWHVLGKL-NH2), in that order: 9 ± 1 µM, 10.6 ± 0.8 µM, 6.5 ± 0.2 µM and more than 200 µM.
